Laboratory results published in patent US20230072683A1, “PYRIDO-PYRIMIDIN DERIVATIVES AND PHARMACEUTICAL COMPOSITION, FOR USE IN PREVENTING OR TREATING PI3 KINASE RELATED DISEASES, COMPRISING SAME AS ACTIVE INGREDIENT” (BORYUNG PHARMACEUTICAL CO., LTD, priority 2019, published 2023).
Read-outs that look alike come from different tables or passages of the source.

Columns and labels:
[1] = biological target: PI3K-δ (PI3K(p1108/p857) (h)) (Homo sapiens, UniProt O00329); assay: Evaluation of inhibitory activity against PI3K-δ (HTRF kinase assay); format: biochemical; details: for inhibition at 0.01 µM: compound concentration 0.01 μM, read-out: EXP_VALUE(% Inhibition) PI3K-δ 0.01 μM; for inhibition at 0.1 µM: read-out: EXP_VALUE(% Inhibition) PI3K-δ 0.1 μM
Procedure, shortened: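 HTRF read-out (665/620 nm ratio ×10000) used Eu-labelled anti-GST, GST-tagged GRP1 PH domain and streptavidin-allophycocyanin after EDTA/PIP3 stop.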

DNA-PK(h) = DNA-PK(h) (Homo sapiens, UniProt P78527); assay: Evaluation of inhibitory activity against DNA-PK (HTRF kinase assay, GST-cMyc-p53 substrate); format: biochemical; details: for inhibition at 0.01 µM: compound concentration 0.01 μM, read-out: EXP_VALUE(% Inhibition) DNA-PK(h) 0.01 μM; for inhibition at 0.1 µM: read-out: EXP_VALUE(% Inhibition) DNA-PK(h) 0.1 μM
Procedure, shortened: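 Human DNA-PK with 50 μM GST-cMyc-p53 substrate; reaction started with Mg/ATP, run 30 min at room temperature, stopped with EDTA. Phospho-Ser15 p53 detected by HTRF (Eu anti-phospho-Ser15, d2 anti-GST), signal = 10000×(Em 665/Em 620).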

Sequence of PI3K-δ (PI3K(p1108/p857) (h)) (O00329 whole entry, the tested form may be a part): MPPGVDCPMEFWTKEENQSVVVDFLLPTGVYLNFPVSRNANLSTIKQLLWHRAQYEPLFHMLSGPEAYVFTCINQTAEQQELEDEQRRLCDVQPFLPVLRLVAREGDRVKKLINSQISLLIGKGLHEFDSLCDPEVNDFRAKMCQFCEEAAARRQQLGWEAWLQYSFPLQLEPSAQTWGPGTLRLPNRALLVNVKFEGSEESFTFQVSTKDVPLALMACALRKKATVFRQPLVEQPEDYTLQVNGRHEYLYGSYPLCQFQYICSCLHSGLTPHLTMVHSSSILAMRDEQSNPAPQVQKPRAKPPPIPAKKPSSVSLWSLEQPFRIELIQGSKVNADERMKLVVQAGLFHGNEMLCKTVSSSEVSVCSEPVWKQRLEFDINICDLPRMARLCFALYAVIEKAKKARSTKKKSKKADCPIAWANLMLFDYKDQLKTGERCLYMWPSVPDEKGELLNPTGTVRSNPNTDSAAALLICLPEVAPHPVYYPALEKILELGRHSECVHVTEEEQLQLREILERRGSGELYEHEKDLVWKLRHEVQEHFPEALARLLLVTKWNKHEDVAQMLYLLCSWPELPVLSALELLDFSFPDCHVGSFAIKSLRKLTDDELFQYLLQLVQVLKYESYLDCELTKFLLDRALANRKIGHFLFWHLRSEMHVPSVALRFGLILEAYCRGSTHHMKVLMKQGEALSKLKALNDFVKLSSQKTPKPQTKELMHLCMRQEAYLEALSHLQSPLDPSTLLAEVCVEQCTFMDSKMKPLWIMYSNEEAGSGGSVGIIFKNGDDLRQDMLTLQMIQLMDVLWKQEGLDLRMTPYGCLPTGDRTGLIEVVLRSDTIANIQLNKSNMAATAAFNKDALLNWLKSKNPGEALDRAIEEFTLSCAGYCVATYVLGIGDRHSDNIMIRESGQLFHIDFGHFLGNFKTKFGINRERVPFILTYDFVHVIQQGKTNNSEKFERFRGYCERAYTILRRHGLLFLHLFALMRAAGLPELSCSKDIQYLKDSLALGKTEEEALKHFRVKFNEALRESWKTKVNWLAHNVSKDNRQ
Sequence of PI3K-δ (PI3K(p1108/p857) (h)) (P27986 whole entry partner, the tested form may be a part): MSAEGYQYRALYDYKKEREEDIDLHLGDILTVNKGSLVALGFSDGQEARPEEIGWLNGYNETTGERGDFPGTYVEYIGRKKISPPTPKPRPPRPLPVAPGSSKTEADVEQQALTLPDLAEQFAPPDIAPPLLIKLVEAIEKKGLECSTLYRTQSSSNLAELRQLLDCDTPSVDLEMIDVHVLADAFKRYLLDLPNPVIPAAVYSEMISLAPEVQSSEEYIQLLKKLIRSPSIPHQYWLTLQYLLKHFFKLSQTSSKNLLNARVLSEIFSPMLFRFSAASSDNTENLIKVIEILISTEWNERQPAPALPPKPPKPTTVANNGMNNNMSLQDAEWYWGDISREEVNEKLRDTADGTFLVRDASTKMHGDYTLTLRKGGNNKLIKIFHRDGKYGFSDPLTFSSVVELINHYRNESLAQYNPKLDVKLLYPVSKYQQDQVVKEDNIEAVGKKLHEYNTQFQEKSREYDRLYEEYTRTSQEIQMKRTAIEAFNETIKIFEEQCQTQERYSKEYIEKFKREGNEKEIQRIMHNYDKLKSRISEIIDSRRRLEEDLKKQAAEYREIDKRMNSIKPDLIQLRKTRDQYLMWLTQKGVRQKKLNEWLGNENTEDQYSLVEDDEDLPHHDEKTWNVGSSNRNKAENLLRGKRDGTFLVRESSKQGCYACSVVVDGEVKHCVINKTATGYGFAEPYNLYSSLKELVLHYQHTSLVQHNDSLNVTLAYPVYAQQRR

Compound `Cc1ccc(Oc2cccc3c(Cl)c([C@H](C)Nc4ncnc5[nH]ccc(=O)c45)n(-c4ccccc4)c(=O)c23)cc1` [Example 367, (S)-4-((1-(4-chloro-1-oxo-2-phenyl-8-(p-tolyloxy)-1,2-dihydroisoquinolin-3-yl)ethyl)amino)pyrido[2,3-d]pyrimidin-5(8H)-one] has an inhibition at 0.01 µM [1] of 51%, an inhibition at 0.1 µM ([1]; compound concentration 0.1 μM) of 93% and an inhibition at 0.01 µM (DNA-PK(h)) of 21%. It also gave an inhibition at 0.1 µM (DNA-PK(h); compound concentration 0.1 μM) of 67%.
Work on `CC(Oc1cccc2c(Cl)c([C@H](C)Nc3ncnc4[nH]ccc(=O)c34)n(-c3ccccc3)c(=O)c12)c1ccncc1` (stereo partly drawn) [Example 368, 4-(((1S)-1-(4-chloro-1-oxo-2-phenyl-8-(1-(pyridin-4-yl)ethoxy)-1,2-dihydroisoquinolin-3-yl)ethyl)amino)pyrido[2,3-d]pyrimidin-5(8H)-one] yielded an inhibition at 0.01 µM [1] of 72%, an inhibition at 0.1 µM ([1]; compound concentration 0.1 μM) of 94% and an inhibition at 0.01 µM (DNA-PK(h)) of 50%. It also gave an inhibition at 0.1 µM (DNA-PK(h); compound concentration 0.1 μM) of 85%.
`C[C@H](Nc1ncnc2[nH]ccc(=O)c12)c1c(Cl)c2cccc(SCc3ccc(Cl)cc3)c2c(=O)n1-c1ccccc1` [Example 369, (S)-4-((1-(4-chloro-8-((4-chlorobenzyl)thio)-1-oxo-2-phenyl-1,2-dihydroisoquinolin-3-yl)ethyl)amino)pyrido[2,3-d]pyrimidin-5(8H)-one] showed an inhibition at 0.01 µM [1] of 5%, an inhibition at 0.1 µM ([1]; compound concentration 0.1 μM) of 27% and an inhibition at 0.01 µM (DNA-PK(h)) of 14%. The inhibition at 0.1 µM (DNA-PK(h); compound concentration 0.1 μM) was 54%.
In the case of `C[C@H](Nc1ncnc2[nH]ccc(=O)c12)c1c(Cl)c2cccc(Sc3ccncc3)c2c(=O)n1-c1ccccc1` [Example 370, (S)-4-((1-(4-chloro-1-oxo-2-phenyl-8-(pyridin-4-ylthio)-1,2-dihydroisoquinolin-3-yl)ethyl)amino)pyrido[2,3-d]pyrimidin-5(8H)-one], the inhibition at 0.01 µM [1] is reported as 69%, the inhibition at 0.1 µM ([1]; compound concentration 0.1 μM) is reported as 96% and the inhibition at 0.01 µM (DNA-PK(h)) is reported as 39%. For the same compound, the inhibition at 0.1 µM (DNA-PK(h); compound concentration 0.1 μM) was 76%.
With `C[C@H](Nc1ncnc2[nH]ccc(=O)c12)c1c(Cl)c2cccc(Sc3ccc(Cl)cc3)c2c(=O)n1-c1ccccc1` [Example 371, (S)-4-((1-(4-chloro-8-((4-chlorophenyl)thio)-1-oxo-2-phenyl-1,2-dihydroisoquinolin-3-yl)ethyl)amino)pyrido[2,3-d]pyrimidin-5(8H)-one] the inhibition at 0.01 µM [1] was 2%, the inhibition at 0.1 µM ([1]; compound concentration 0.1 μM) was 10% and the inhibition at 0.01 µM (DNA-PK(h)) was 0%. It also gave an inhibition at 0.1 µM (DNA-PK(h); compound concentration 0.1 μM) of 4%.
`CCCSc1cccc2c(Cl)c([C@H](C)Nc3ncnc4[nH]ccc(=O)c34)n(-c3ccccc3)c(=O)c12` [Example 372, (S)-4-((1-(4-chloro-1-oxo-2-phenyl-8-(propylthio)-1,2-dihydroisoquinolin-3-yl)ethyl)amino)pyrido[2,3-d]pyrimidin-5(8H)-one] was tested, and the inhibition at 0.01 µM [1] was 3%, the inhibition at 0.1 µM ([1]; compound concentration 0.1 μM) was 19% and the inhibition at 0.01 µM (DNA-PK(h)) was 38%. For the same compound, the inhibition at 0.1 µM (DNA-PK(h); compound concentration 0.1 μM) was 79%.
In the case of `C[C@H](Nc1ncnc2[nH]ccc(=O)c12)c1c(Cl)c2cccc(-c3ccc4c(c3)NC(=O)C(C)(C)O4)c2c(=O)n1-c1ccccc1` [Example 373, (S)-6-(4-chloro-1-oxo-3-(1-((5-oxo-5,8-dihydropyrido[2,3-d]pyrimidin-4-yl)amino)ethyl)-2-phenyl-1,2-dihydroisoquinolin-8-yl)-2,2-dimethyl-2H-benzo[b] [1,4]oxazin-3 (4H)-one], the inhibition at 0.1 µM ([1]; compound concentration 0.1 μM) is reported as 48% and the inhibition at 0.1 µM (DNA-PK(h); compound concentration 0.1 μM) is reported as 36%.
For `COc1cc(-n2ccc(=O)c3c(N[C@@H](C)c4c(Cl)c5ccccc5c(=O)n4-c4ccccc4)ncnc32)ccn1` [Example 374, (S)-4-((1-(4-chloro-1-oxo-2-phenyl-1,2-dihydroisoquinolin-3-yl)ethyl)amino)-8-(2-methoxypyridin-4-yl)pyrido[2,3-d]pyrimidin-5(8H)-one], the inhibition at 0.1 µM ([1]; compound at 0.1 μM) was 21% and the inhibition at 0.1 µM (DNA-PK(h); compound at 0.1 μM) was 14%.
For `CC(C)Oc1cnc(-c2cccc3c(Cl)c([C@H](C)Nc4ncnc5[nH]ccc(=O)c45)n(-c4ccccc4)c(=O)c23)cn1` [Example 376, (S)-4-((1-(4-chloro-8-(5-isopropoxypyrazin-2-yl)-1-oxo-2-phenyl-1,2-dihydroisoquinolin-3-yl)ethyl)amino)pyrido[2,3-d]pyrimidin-5(8H)-one], the inhibition at 0.1 µM ([1]; compound at 0.1 μM) was 49% and the inhibition at 0.1 µM (DNA-PK(h); compound at 0.1 μM) was 18%.
In the case of `C[C@H](Nc1ncnc2[nH]ccc(=O)c12)c1c(Cl)c2cccc(-c3cnc(-c4cccs4)nc3)c2c(=O)n1-c1ccccc1` [Example 377, (S)-4-((1-(4-chloro-1-oxo-2-phenyl-8-(2-(thiophen-2-yl)pyrimidin-5-yl)-1,2-dihydroisoquinolin-3-yl)ethyl)amino)pyrido[2,3-d]pyrimidin-5(8H)-one], the inhibition at 0.1 µM ([1]; compound at 0.1 μM) is reported as 59% and the inhibition at 0.1 µM (DNA-PK(h); compound at 0.1 μM) is reported as 30%.
For `C[C@H](Nc1ncnc2[nH]ccc(=O)c12)c1c(Cl)c2cccc(-c3cnc(-c4ccco4)nc3)c2c(=O)n1-c1ccccc1` [Example 378, (S)-4-((1-(4-chloro-8-(2-(furan-2-yl)pyrimidin-5-yl)-1-oxo-2-phenyl-1,2-dihydroisoquinolin-3-yl)ethyl)amino)pyrido[2,3-d]pyrimidin-5(8H)-one], the inhibition at 0.1 µM ([1]; compound at 0.1 μM) was 61% and the inhibition at 0.1 µM (DNA-PK(h); compound at 0.1 μM) was 18%.
For `CCc1ncc(-c2cccc3c(Cl)c([C@H](C)Nc4ncnc5[nH]ccc(=O)c45)n(-c4ccccc4)c(=O)c23)cn1` [Example 379, (S)-4-((1-(4-chloro-8-(2-ethylpyrimidin-5-yl)-1-oxo-2-phenyl-1,2-dihydroisoquinolin-3-yl)ethyl)amino)pyrido[2,3-d]pyrimidin-5(8H)-one], the inhibition at 0.1 µM ([1]; compound at 0.1 μM) was 80% and the inhibition at 0.1 µM (DNA-PK(h); compound at 0.1 μM) was 74%.
With `C[C@H](Nc1ncnc2[nH]ccc(=O)c12)c1c(Cl)c2cccc(-c3cc4ccccc4[nH]3)c2c(=O)n1-c1ccccc1` [Example 380, (S)-4-((1-(4-chloro-8-(1H-indol-2-yl)-1-oxo-2-phenyl-1,2-dihydroisoquinolin-3-yl)ethyl)amino)pyrido[2,3-d]pyrimidin-5(8H)-one] the inhibition at 0.1 µM ([1]; compound at 0.1 μM) was 76% and the inhibition at 0.1 µM (DNA-PK(h); compound at 0.1 μM) was 19%.
`CC(C)c1ncc(-c2cccc3c(Cl)c([C@H](C)Nc4ncnc5[nH]ccc(=O)c45)n(-c4ccccc4)c(=O)c23)cn1` [Example 381, (S)-4-((1-(4-chloro-8-(2-isopropylpyrimidin-5-yl)-1-oxo-2-phenyl-1,2-dihydroisoquinolin-3-yl)ethyl)amino)pyrido[2,3-d]pyrimidin-5(8H)-one] gave an inhibition at 0.1 µM ([1]; compound at 0.1 μM) of 81% and an inhibition at 0.1 µM (DNA-PK(h); compound at 0.1 μM) of 69%.
In the case of `C[C@H](Nc1ncnc2[nH]ccc(=O)c12)c1c(Cl)c2cccc(-c3cnc(F)nc3)c2c(=O)n1-c1ccccc1` [Example 382, (S)-4-((1-(4-chloro-8-(2-fluoropyrimidin-5-yl)-1-oxo-2-phenyl-1,2-dihydroisoquinolin-3-yl)ethyl)amino)pyrido[2,3-d]pyrimidin-5(8H)-one], the inhibition at 0.1 µM ([1]; compound at 0.1 μM) is reported as 16% and the inhibition at 0.1 µM (DNA-PK(h); compound at 0.1 μM) is reported as 5%.
For `COc1ncc(-c2cccc3cc([C@H](C)Nc4ncnc5[nH]ccc(=O)c45)n(-c4ccccc4)c(=O)c23)cn1` [Example 383, (S)-4-((1-(8-(2-methoxypyrimidin-5-yl)-1-oxo-2-phenyl-1,2-dihydroisoquinolin-3-yl)ethyl)amino)pyrido[2,3-d]pyrimidin-5(8H)-one], the inhibition at 0.1 µM ([1]; compound at 0.1 μM) was 79% and the inhibition at 0.1 µM (DNA-PK(h); compound at 0.1 μM) was 10%.
With `CCOc1ncc(-c2cccc3cc([C@H](C)Nc4ncnc5[nH]ccc(=O)c45)n(-c4ccccc4)c(=O)c23)cn1` [Example 384, (S)-4-((1-(8-(2-ethoxypyrimidin-5-yl)-1-oxo-2-phenyl-1,2-dihydroisoquinolin-3-yl)ethyl)amino)pyrido[2,3-d]pyrimidin-5(8H)-one] the inhibition at 0.1 µM ([1]; compound at 0.1 μM) was 85% and the inhibition at 0.1 µM (DNA-PK(h); compound at 0.1 μM) was 40%.
`C[C@H](Nc1ncnc2[nH]ccc(=O)c12)c1cc2cccc(-c3cnc(C(F)(F)F)nc3)c2c(=O)n1-c1ccccc1` [Example 385, (S)-4-((1-(1-oxo-2-phenyl-8-(2-(trifluoromethyl)pyrimidin-5-yl)-1,2-dihydroisoquinolin-3-yl)ethyl)amino)pyrido[2,3-d]pyrimidin-5(8H)-one] was tested, and the inhibition at 0.1 µM ([1]; compound at 0.1 μM) was 75% and the inhibition at 0.1 µM (DNA-PK(h); compound at 0.1 μM) was 4%.
`C[C@H](Nc1ncnc2[nH]ccc(=O)c12)c1cc2cccc(-c3cnc(C(C)(C)O)nc3)c2c(=O)n1-c1ccccc1` [Example 386, (S)-4-((1-(8-(2-(2-hydroxypropan-2-yl)pyrimidin-5-yl)-1-oxo-2-phenyl-1,2-dihydroisoquinolin-3-yl)ethyl)amino)pyrido[2,3-d]pyrimidin-5(8H)-one] was tested, and the inhibition at 0.1 µM ([1]; compound at 0.1 μM) was 85% and the inhibition at 0.1 µM (DNA-PK(h); compound at 0.1 μM) was 16%.
Work on `Cc1ccc(-c2cccc3c(Cl)c([C@H](C)Nc4ncnc5[nH]ccc(=O)c45)n(-c4ccccc4)c(=O)c23)s1` [Example 387, (S)-4-((1-(4-chloro-8-(5-methylthiophen-2-yl)-1-oxo-2-phenyl-1,2-dihydroisoquinolin-3-yl)ethyl)amino)pyrido[2,3-d]pyrimidin-5(8H)-one] yielded an inhibition at 0.1 µM ([1]; compound at 0.1 μM) of 72% and an inhibition at 0.1 µM (DNA-PK(h); compound at 0.1 μM) of 58%.
Compound `C[C@H](Nc1ncnc2[nH]ccc(=O)c12)c1c(Cl)c2cccc(-c3cccs3)c2c(=O)n1-c1ccccc1` [Example 388, (S)-4-((1-(4-chloro-1-oxo-2-phenyl-8-(thiophen-2-yl)-1,2-dihydroisoquinolin-3-yl)ethyl)amino)pyrido[2,3-d]pyrimidin-5(8H)-one] has an inhibition at 0.1 µM ([1]; compound at 0.1 μM) of 80% and an inhibition at 0.1 µM (DNA-PK(h); compound at 0.1 μM) of 68%.
Work on `C[C@H](Nc1ncnc2[nH]ccc(=O)c12)c1c(Cl)c2cccc(C(F)(F)F)c2c(=O)n1-c1ccccc1` [Example 389, (S)-4-((1-(4-chloro-1-oxo-2-phenyl-8-(trifluoromethyl)-1,2-dihydroisoquinolin-3-yl)ethyl)amino)pyrido[2,3-d]pyrimidin-5(8H)-one] yielded an inhibition at 0.1 µM ([1]; compound at 0.1 μM) of 90% and an inhibition at 0.1 µM (DNA-PK(h); compound at 0.1 μM) of 32%.
